Results on 1 compound are retold here after patent US8658668B2, “PI3 kinase/mTOR dual inhibitor” (Eli Lilly and Company, priority 2011, dated 2014).

The test system of one assay is A2780. The experiment in a line: Cell proliferation assay (CellTiter-Glo), A2780. The following applies: Homo sapiens, A2780, 72 h. It is filed as cell-based. As to the method:
Plate cells in a 96-well plate at 2000 cells/well in 100 μL of cell specific medium (for U87MG use DMEM, 10% FBS, 25 mM 4-(2-hydroxyethyl)-1-piperazineethanesulfonic acid (HEPES), 1.0 mM sodium pyruvate, and 0.1 mM Non Essential Amino Acids (ATCC Cat.#30-2002); for HT1080 use Eagle's MEM, 10% FBS (ATCC Cat.#30-2003); for H1975, A2780, SJSA-1 and 786-O use RPMI 1640, 10% FBS (ATCC Cat.#30-2001); for A204 use McCoy's 5A, 10% FBS (ATCC Cat.#30-2007) except in column 1 use medium only as the blank control. Incubate the plates overnight at 37° C. and 5% CO2. On the next day, prepare compound stocks at 1 mM in DMSO and serially dilute in DMSO in a 96-well round bottom polypropylene plate. Assay compounds at 10 concentrations in duplicate, 4 compounds per plate.
Transfer 4 μL of the DMSO serial dilutions to a 96 well plate and add 196 μL of culture medium to create a 10× stock for dosing. Gently transfer 11 μL of each dosing stock to the corresponding well of the cell plate resulting in a 0.2% DMSO concentration and a 111 μL final volume. […]
Prepared the CellTiter-Glo reagent (Promega, Cat: G7571) and add 100 µL to each well after the incubation is complete, homogenize the cells by mixing on an orbital shaker for 2 min and then incubate at RT for 10 min to allow the luminescent signal to stabilize. Record the luminescent raw data with a Wallac Victor V plate reader. […]

For assay [1], the system named is LXFL 1072 human tumor xenograft cells. In words: Oncotest tumor clonogenic assay, LXFL 1072. The assay is classed as cell-based. The following applies: colony formation, NSCLC LXFL 1072, large cell lung carcinoma, pd, read-out: Absolute IC50.
For assay [2], the system named is PAXF 736 human tumor xenograft cells. In words: Oncotest tumor clonogenic assay, PAXF 736. The conditions noted are these: PAXF736, colony formation, Pancreas PAXF 736, adeno carcinoma, pd, read-out: Absolute IC50. It is filed as cell-based.
Assay [3] has as its system p110α(E545K)/myc leukemic cells. The experiment in a line: E545Kp110a leukemia model. The assay is classed as in vivo, mouse. The conditions noted are these: oral gavage, day 5 through day 11, blood on day 12. The text has this:
Leukemia cell line creation: Transduce embryonic liver cells derived from transgenic embryos, B6.Cg-Tg[IghMyc]22Bri/J (Jackson Laboratory, Bar Harbor, Me.), with a retrovirus expressing a clinically-isolated activating mutation of human p110α (E545K as an amino acid change, G1633A on the nucleotide level) under control of the viral 5′ LTR (long terminal repeat) and expressing GFP (green fluorescent protein) under control of the PGK promoter (MSCV6 FLAG-p110α G1633A PGK/GFP) to create target-driven leukemia cells. Transfer the transduced cells into a lethally irradiated host animal. The transduced cells repopulate the hematopoietic stem cells among bone marrow of the recipient and rescue the recipient animal from radiation-induced lethality due to ablation of the recipient's original bone marrow. Observe the rescued primary animals for development of leukemia via weekly monitoring white blood cell counts in a small amount of blood (10 μL) collected retro-orbitally. Collect blood from primary irradiated animals with confirmed leukemia and serially passage to secondary (non-irradiated) host animals in order to establish as a leukemic cell line.
Subject Animals: Use female C57BL/6 mice (Taconic, Cambridge City, Ind.), 8 to 10 week old and 20 to 22 g in weight, as leukemia recipient animals. Acclimate animals on normal low fat diet (4.5%) prior to inoculation and continue on that diet ad libitum for the duration of the study. Identify individual mice from each group by ear punches. Inoculate animals with leukemic cells from donor animals (day 0).
Syngeneic leukemia model: From a donor animal previously inoculated with the leukemic cell line of interest, collect a small amount of blood retro-orbitally (10 μL) and measure the leukemia cell burden by white blood cell count. From animals with sufficient leukemic burden, collect donor blood, dilute with phosphate-buffered saline (PBS) to 500,000 white blood cells per 200 μL and inject 200 μL per animal retro-orbitally on day 0 to initiate leukemia. […]

In assay [4] the test system is human non-small cell lung cancer cells NCI-H1975. The experiment in a line: Xenograft tumor model, NCI-H1975. The assay is classed as in vivo, mouse. The following applies: oral gavage. As to the method:
Expand human glioblastoma cells U87MG and human renal carcinoma cells 786-O, in culture, harvest and inject subcutaneously onto the rear flank of athymic nude mice. Expand human non-small cell lung cancer cells NCI-H1975 in culture, harvest and inject subcutaneously onto the rear flank of CD-1 nu/nu mice. Prepare test compound in an appropriate vehicle and administer by oral gavage when tumors are established (7-21 days after implant). Tumor response is determined by tumor volume measurement performed twice a week during the course of treatment. Body weight is taken as a general measurement of toxicity.

On to `CO[C@@H](C)Cn1c(=O)n(C)c2cnc3ccc(-c4cncc(C(C)(C)O)c4)cc3c21` [Example 1, 8-[5-(1-Hydroxy-1-methylethyl)pyridin-3-yl]-1-[(2S)-2-methoxypropyl]-3-methyl-1,3-dihydro-2H-imidazo[4,5-c]quinolin-2-one], for which the IC50 in the assay with A2780 stood at 90 nM; in assay [1], 214 nM; in assay [2] it was 174 nM. Also, the “% TGI” value is listed as 50.5% in assay [3] (5 mg/kg qd); 76.1% in assay [3] (10 mg/kg qd); 90.1% in assay [3] (20 mg/kg qd); 13.8% in assay [4] (H1975, 3 mg/kg BID); 26.9% in assay [4] (H1975, 6 mg/kg BID); 62.7% in assay [4] (H1975, 10 mg/kg BID).
